Among the data in patent publication US12252524B2, “GIP/GLP1 co-agonist compounds” (Eli Lilly and Company, priority 2018, dated 2025) are EC50 values, retold here.

Numbered stars: 1 amine (or outer) side, 2 acyl side, 3 side chain; on linkers, the order of the positions; unused ones are H or OH. Square brackets hold non-standard residues; d marks the D form. Side chains are listed from the residue outwards. Peptide text beside a SMILES is read from it. * marks the point of attachment. Ala(1H-tetrazol-5-yl) = N[C@@H](Cc1nnn[nH]1)C(=O)O; C20 diacid = O=C(O)CCCCCCCCCCCCCCCCCCC(=O)*; αMePhe(2-F) = C[C@](N)(Cc1ccccc1F)C(=O)O; γGlu = O=C(O)[C@H](CCC(=O)[*:2])N[*:1]; αMeY = C[C@](N)(Cc1ccc(O)cc1)C(=O)O; αMeF = C[C@](N)(Cc1ccccc1)C(=O)O; 4Pal = N[C@@H](Cc1ccncc1)C(=O)O; αMeL = CC(C)C[C@](C)(N)C(=O)O; Orn = NCCC[C@H](N)C(=O)O; AEEA = NCCOCCOCC(=O)O; Aib = CC(C)(N)C(=O)O

Experiment [1] concerns the target human GLP-1 receptor (GLP-1R) (Homo sapiens, UniProt P43220). As to the kind of experiment: cAMP pharmacological functional assay in presence of casein, hGLP-1R. The class given is cell-based. Particulars: HEK293 cells expressing hGLP-1R, 0.1% Casein, geometric mean; read-out: hGLP1R cAMP Rel EC50 nM (SEM, n).
Experiment [2] addresses T1, gastric inhibitory peptide receptor (GIPR) (Homo sapiens, UniProt P48546).
T1 sequence (P48546 22-466): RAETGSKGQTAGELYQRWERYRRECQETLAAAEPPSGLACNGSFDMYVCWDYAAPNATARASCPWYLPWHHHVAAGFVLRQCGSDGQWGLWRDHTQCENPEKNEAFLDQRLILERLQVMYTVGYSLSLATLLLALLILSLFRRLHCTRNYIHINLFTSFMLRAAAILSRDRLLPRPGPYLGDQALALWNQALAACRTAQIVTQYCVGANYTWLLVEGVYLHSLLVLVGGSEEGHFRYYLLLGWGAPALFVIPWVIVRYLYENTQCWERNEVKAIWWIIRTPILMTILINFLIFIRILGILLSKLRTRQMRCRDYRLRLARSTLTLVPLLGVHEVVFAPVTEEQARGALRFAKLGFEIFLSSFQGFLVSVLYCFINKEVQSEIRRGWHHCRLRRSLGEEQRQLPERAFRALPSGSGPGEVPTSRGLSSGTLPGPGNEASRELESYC
In words: cAMP pharmacological functional assay in presence of casein, hGIPR. Format: cell-based. Particulars: HEK293 cells expressing hGIPR, 0.1% Casein, geometric mean; read-out: hGIPR cAMP Rel EC50 nM (SEM, n).

Sequence of human GLP-1 receptor (GLP-1R) (P43220 24-463): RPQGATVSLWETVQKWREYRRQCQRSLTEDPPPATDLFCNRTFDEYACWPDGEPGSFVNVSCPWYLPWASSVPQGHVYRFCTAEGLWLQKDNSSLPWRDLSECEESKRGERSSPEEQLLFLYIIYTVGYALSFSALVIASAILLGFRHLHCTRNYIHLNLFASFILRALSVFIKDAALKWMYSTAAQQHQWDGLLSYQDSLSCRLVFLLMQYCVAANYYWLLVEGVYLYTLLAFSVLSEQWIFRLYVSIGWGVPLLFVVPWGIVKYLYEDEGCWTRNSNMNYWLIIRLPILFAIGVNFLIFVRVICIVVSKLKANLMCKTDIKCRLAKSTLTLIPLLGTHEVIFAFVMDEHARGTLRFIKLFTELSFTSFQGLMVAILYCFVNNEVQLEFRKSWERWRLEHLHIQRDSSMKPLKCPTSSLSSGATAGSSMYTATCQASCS

Regarding `CC[C@H](C)[C@H](NC(=O)[C@H](CC(C)C)NC(=O)[C@H](Cc1ccc(O)cc1)NC(=O)[C@@H](CCC(=O)O)NC(=O)[C@@H](NC(=O)[C@H](Cc1ccccc1)NC(=O)[C@@H](NC(=O)C(C)(C)NC(=O)[C@H](CCC(N)=O)NC(=O)[C@H](C)NC(=O)[C@H](CCCCNC(=O)COCCOCCNC(=O)COCCOCCNC(=O)CC[C@H](NC(=O)CCCCCCCCCCCCCCCCCCC(=O)O)C(=O)O)NC(=O)[C@H](CCCN)NC(=O)[C@H](CC(=O)O)NC(=O)[C@H](CC(C)C)NC(=O)[C@](C)(CC(C)C)NC(=O)[C@@H](NC(=O)[C@H](CO)NC(=O)[C@H](Cc1c[nH]cn1)NC(=O)[C@H](CC(=O)O)NC(=O)[C@H](CO)NC(=O)[C@@H](NC(=O)[C@](C)(Cc1ccccc1F)NC(=O)[C@@H](NC(=O)CNC(=O)[C@H](CCC(=O)O)NC(=O)C(C)(C)NC(=O)[C@@H](N)Cc1ccc(O)cc1)[C@@H](C)O)[C@@H](C)O)[C@@H](C)CC)[C@@H](C)O)[C@@H](C)CC)C(=O)N[C@@H](CCC(=O)O)C(=O)NCC(=O)NCC(=O)N1CCC[C@H]1C(=O)N[C@@H](CO)C(=O)N[C@@H](CO)C(=O)NCC(=O)N[C@@H](C)C(=O)N1CCC[C@H]1C(=O)N1CCC[C@H]1C(=O)N1CCC[C@H]1C(=O)N[C@@H](CO)C(N)=O` [Example 171] (H-Y[Aib]EGT[αMePhe(2-F)]TSDHSI[αMeL]LD[Orn]K([AEEA-AEEA-γGlu-C20 diacid])AQ[Aib]TFI[dE]YLIEGGPSSGAPPPS-NH2), the results for the half-maximal effective concentration (EC50) in experiment [1] and in experiment [2] were 0.75 nM and 0.223 nM, respectively.

On to `CC[C@H](C)[C@H](NC(=O)[C@H](CC(C)C)NC(=O)[C@H](Cc1ccc(O)cc1)NC(=O)[C@H](CCC(=O)O)NC(=O)[C@@H](NC(=O)[C@H](Cc1ccccc1)NC(=O)[C@H](C)NC(=O)C(C)(C)NC(=O)[C@H](CCC(N)=O)NC(=O)[C@H](C)NC(=O)[C@H](CCCCNC(=O)COCCOCCNC(=O)COCCOCCNC(=O)CC[C@H](NC(=O)CCCCCCCCCCCCCCCCCCC(=O)O)C(=O)O)NC(=O)[C@H](CCCCN)NC(=O)[C@H](CC(=O)O)NC(=O)[C@H](CC(C)C)NC(=O)[C@H](CC(C)C)NC(=O)[C@@H](NC(=O)[C@H](CO)NC(=O)[C@H](Cc1c[nH]cn1)NC(=O)[C@H](CC(=O)O)NC(=O)[C@H](CO)NC(=O)[C@@H](NC(=O)[C@H](Cc1ccccc1)NC(=O)[C@@H](NC(=O)CNC(=O)[C@H](CCC(=O)O)NC(=O)C(C)(C)NC(=O)[C@@H](N)Cc1ccc(O)cc1)[C@@H](C)O)[C@@H](C)O)[C@@H](C)CC)[C@@H](C)CC)C(=O)N[C@@H](CCC(=O)O)C(=O)NCC(=O)NCC(=O)N1CCC[C@H]1C(=O)N[C@@H](CO)C(=O)N[C@@H](CO)C(=O)NCC(=O)N[C@@H](C)C(=O)N1CCC[C@H]1C(=O)N1CCC[C@H]1C(=O)N1CCC[C@H]1C(=O)N[C@@H](CO)C(N)=O` [Example 260] (H-Y[Aib]EGTFTSDHSILLDKK([AEEA-AEEA-γGlu-C20 diacid])AQ[Aib]AFIEYLIEGGPSSGAPPPS-NH2; N-terminus assumed), for which the EC50 was found to be 0.408 nM in experiment [1] and 0.617 nM in experiment [2].

For the molecule `CC[C@H](C)[C@H](NC(=O)[C@H](CC(C)C)NC(=O)[C@](C)(Cc1ccccc1)NC(=O)[C@@H](CCC(=O)O)NC(=O)[C@@H](NC(=O)[C@H](Cc1ccccc1)NC(=O)[C@@H](NC(=O)C(C)(C)NC(=O)[C@H](CCC(N)=O)NC(=O)[C@H](C)NC(=O)[C@H](CCCCNC(=O)COCCOCCNC(=O)COCCOCCNC(=O)CC[C@H](NC(=O)CCCCCCCCCCCCCCCCCCC(=O)O)C(=O)O)NC(=O)[C@H](CCC(=O)O)NC(=O)[C@H](CC(=O)O)NC(=O)[C@H](CC(C)C)NC(=O)[C@](C)(CC(C)C)NC(=O)[C@@H](NC(=O)[C@H](CO)NC(=O)[C@H](Cc1c[nH]cn1)NC(=O)[C@H](CC(=O)O)NC(=O)[C@H](CO)NC(=O)[C@@H](NC(=O)[C@](C)(Cc1ccccc1F)NC(=O)[C@@H](NC(=O)CNC(=O)[C@H](CCC(=O)O)NC(=O)C(C)(C)NC(=O)[C@@H](N)Cc1ccc(O)cc1)[C@@H](C)O)[C@@H](C)O)[C@@H](C)CC)[C@@H](C)O)[C@@H](C)CC)C(=O)N[C@H](CCC(=O)O)C(=O)NCC(=O)NCC(=O)N1CCC[C@H]1C(=O)N[C@@H](CO)C(=O)N[C@@H](CO)C(=O)NCC(=O)N[C@@H](C)C(=O)N1CCC[C@H]1C(=O)N1CCC[C@H]1C(=O)N1CCC[C@H]1C(=O)N[C@@H](CO)C(N)=O` [Example 165] (H-Y[Aib]EGT[αMePhe(2-F)]TSDHSI[αMeL]LDEK([AEEA-AEEA-γGlu-C20 diacid])AQ[Aib]TFI[dE][αMeF]LI[dE]GGPSSGAPPPS-NH2), the EC50 in experiment [1] turned out to be 5.81 nM; in experiment [2], 1.04 nM.

As for `CC[C@H](C)[C@H](NC(=O)[C@H](CC(C)C)NC(=O)[C@](C)(Cc1ccc(O)cc1)NC(=O)[C@@H](CCC(=O)O)NC(=O)[C@@H](NC(=O)[C@H](Cc1ccccc1)NC(=O)[C@H](CCC(=O)O)NC(=O)C(C)(C)NC(=O)[C@H](CCC(N)=O)NC(=O)[C@H](C)NC(=O)[C@H](CCCCN)NC(=O)[C@H](CCCN)NC(=O)[C@H](CC(=O)O)NC(=O)[C@H](CC(C)C)NC(=O)[C@](C)(CC(C)C)NC(=O)[C@@H](NC(=O)[C@H](CO)NC(=O)[C@H](Cc1ccncc1)NC(=O)[C@H](CC(=O)O)NC(=O)[C@H](CO)NC(=O)[C@@H](NC(=O)[C@](C)(Cc1ccccc1F)NC(=O)[C@@H](NC(=O)CNC(=O)[C@H](CCC(=O)O)NC(=O)C(C)(C)NC(=O)[C@@H](N)Cc1ccc(O)cc1)[C@@H](C)O)[C@@H](C)O)[C@@H](C)CC)[C@@H](C)CC)C(=O)N[C@@H](CCC(=O)O)C(=O)NCC(=O)NCC(=O)N1CCC[C@H]1C(=O)N[C@@H](CO)C(=O)N[C@@H](CO)C(=O)NCC(=O)N[C@@H](C)C(=O)N1CCC[C@H]1C(=O)N1CCC[C@H]1C(=O)N1CCC[C@H]1C(=O)N[C@@H](CO)C(N)=O` [Example 284] (H-Y[Aib]EGT[αMePhe(2-F)]TSD[4Pal]SI[αMeL]LD[Orn]KAQ[Aib]EFI[dE][αMeY]LIEGGPSSGAPPPS-NH2), the EC50 came to 0.0462 nM in experiment [1] and 0.113 nM in experiment [2].

`CC[C@H](C)[C@H](NC(=O)[C@H](CC(C)C)NC(=O)[C@H](Cc1ccc(O)cc1)NC(=O)[C@@H]1CCCN1C(=O)[C@@H](NC(=O)[C@H](Cc1ccccc1)NC(=O)[C@H](CCC(=O)O)NC(=O)C(C)(C)NC(=O)[C@H](CCC(N)=O)NC(=O)[C@H](C)NC(=O)[C@H](CCCCNC(=O)COCCOCCNC(=O)COCCOCCNC(=O)CC[C@H](NC(=O)CCCCCCCCCCCCCCCCCCC(=O)O)C(=O)O)NC(=O)[C@H](CCC(=O)O)NC(=O)[C@H](CC(=O)O)NC(=O)[C@H](CC(C)C)NC(=O)[C@](C)(CC(C)C)NC(=O)[C@@H](NC(=O)[C@H](CO)NC(=O)[C@H](Cc1ccc(O)cc1)NC(=O)[C@H](CC(=O)O)NC(=O)[C@H](CO)NC(=O)[C@@H](NC(=O)[C@](C)(Cc1ccccc1F)NC(=O)[C@@H](NC(=O)CNC(=O)[C@H](CCC(=O)O)NC(=O)C(C)(C)NC(=O)[C@@H](N)Cc1ccc(O)cc1)[C@@H](C)O)[C@@H](C)O)[C@@H](C)CC)[C@@H](C)CC)C(=O)N[C@@H](CCC(=O)O)C(=O)NCC(=O)NCC(=O)N1CCC[C@H]1C(=O)N[C@@H](CO)C(=O)N[C@@H](CO)C(=O)NCC(=O)N[C@@H](C)C(=O)N1CCC[C@H]1C(=O)N1CCC[C@H]1C(=O)N1CCC[C@H]1C(=O)N[C@@H](CO)C(N)=O` [Example 151] (H-Y[Aib]EGT[αMePhe(2-F)]TSDYSI[αMeL]LDEK([AEEA-AEEA-γGlu-C20 diacid])AQ[Aib]EFIPYLIEGGPSSGAPPPS-NH2; N-terminus assumed): the EC50 came out at 1.6 nM in experiment [1] and 0.41 nM in experiment [2].

On to `CC[C@H](C)[C@H](NC(=O)[C@H](CC(C)C)NC(=O)[C@H](Cc1ccc(O)cc1)NC(=O)[C@H](CCC(=O)O)NC(=O)[C@@H](NC(=O)[C@H](Cc1ccccc1)NC(=O)[C@H](CCC(=O)O)NC(=O)C(C)(C)NC(=O)[C@H](CCC(N)=O)NC(=O)[C@H](C)NC(=O)[C@H](CCCCNC(=O)COCCOCCNC(=O)COCCOCCNC(=O)CC[C@H](NC(=O)CCCCCCCCCCCCCCCCCCC(=O)O)C(=O)O)NC(=O)[C@H](CCC(=O)O)NC(=O)[C@H](CC(=O)O)NC(=O)[C@H](CC(C)C)NC(=O)[C@](C)(CC(C)C)NC(=O)[C@@H](NC(=O)[C@H](CO)NC(=O)[C@H](Cc1nn[nH]n1)NC(=O)[C@H](CC(=O)O)NC(=O)[C@H](CO)NC(=O)[C@@H](NC(=O)[C@](C)(Cc1ccccc1F)NC(=O)[C@@H](NC(=O)CNC(=O)[C@H](CCC(=O)O)NC(=O)C(C)(C)NC(=O)[C@@H](N)Cc1ccc(O)cc1)[C@@H](C)O)[C@@H](C)O)[C@@H](C)CC)[C@@H](C)CC)C(=O)N[C@@H](CCC(=O)O)C(=O)NCC(=O)NCC(=O)N1CCC[C@H]1C(=O)N[C@@H](CO)C(=O)N[C@@H](CO)C(=O)NCC(=O)N[C@@H](C)C(=O)N1CCC[C@H]1C(=O)N1CCC[C@H]1C(=O)N1CCC[C@H]1C(=O)N[C@@H](CO)C(N)=O` [Example 155] (H-Y[Aib]EGT[αMePhe(2-F)]TSD[Ala(1H-tetrazol-5-yl)]SI[αMeL]LDEK([AEEA-AEEA-γGlu-C20 diacid])AQ[Aib]EFIEYLIEGGPSSGAPPPS-NH2; N-terminus assumed), for which the values for the EC50 in experiment [1] and in experiment [2] were 0.495 nM and 0.266 nM, respectively.
